The text below walks through data of patent US11180483B2, “Substituted reverse pyrimidine Bmi-1 inhibitors” (PTC Therapeutics, Inc., priority 2012, dated 2021).

Each structure is given as a SMILES string. pEC50: −log10 of the molar value.

In the assay the test system is Bmi-1. Briefly: Sandwich ELISA Assay (Bmi-1 ELISA) in HT-1080 cells. The assay is classed as cell-based. Put shortly:
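HT-1080 cells exposed to compound in 0.5% final DMSO for 40-48 h at 37 °C, then lysed. Bmi-1 was quantified by sandwich ELISA: mouse monoclonal capture, rabbit anti-Bmi-1 detection, HRP anti-rabbit and TMB. Read at OD450 (OD570 reference) against a recombinant GST-Bmi-1 standard curve (0-8000 pg/mL).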
(In general: ELISA stands for enzyme-linked immunosorbent assay.)
The pEC50 is −log10 of the EC50, conventionally taken in molar units. Higher therefore signals a small EC50. Turning to `Cc1nc2ncc(F)cc2n1-c1nc(N)cc(Nc2ccc(C(F)(F)F)cc2)n1` [Cpd 94, 2-(6-fluoro-2-methyl-1H-imidazo[4,5-b]pyridin-1-yl)-N-[4-(trifluoromethyl)phenyl]pyrimidine-4,6-diamine], the pEC50 is 7.00 to 8.00.
Compound `Cc1nc2ccccc2n1-c1nc(N)c(F)c(Nc2ccc(C(F)(F)F)cc2)n1` [Cpd 95, 5-fluoro-2-(2-methyl-1H-benzimidazol-1-yl)-N-[4-(trifluoromethyl)phenyl]pyrimidine-4,6-diamine] showed a pEC50 of 7.00 to 8.00.
As for `Cc1nc2ccc(Cl)cc2n1-c1nc(N)cc(Nc2ccc(C(F)(F)F)c(F)c2)n1` [Cpd 96, 2-(6-chloro-2-methyl-1H-benzimidazol-1-yl)-N-[3-fluoro-4-(trifluoromethyl)phenyl]pyrimidine-4,6-diamine], the figure is 5.52 to 7.00.
As for `Cc1nc2ccc(Cl)cc2n1-c1nc(N)cc(Nc2ccc(OC(F)F)cc2)n1` [Cpd 97, 2-(6-chloro-2-methyl-1H-benzimidazol-1-yl)-N-[4-(difluoromethoxy)phenyl]pyrimidine-4,6-diamine], the pEC50 is 7.00 to 8.00.
`Cc1nc2cc(Cl)ccc2n1-c1nc(N)cc(Nc2ccc(C(F)(F)F)c(F)c2)n1` [Cpd 98, 2-(5-chloro-2-methyl-1H-benzimidazol-1-yl)-N-[3-fluoro-4-(trifluoromethyl)phenyl]pyrimidine-4,6-diamine] showed a pEC50 of 5.52 to 7.00.
Regarding `Cc1nc2cc(Cl)ccc2n1-c1nc(N)cc(Nc2ccc(OC(F)F)cc2)n1` [Cpd 99, 2-(5-chloro-2-methyl-1H-benzimidazol-1-yl)-N-[4-(difluoromethoxy)phenyl]pyrimidine-4,6-diamine], the pEC50 is 5.52 to 7.00.
Compound `Cc1nc2cc(F)c(F)cc2n1-c1nc(N)cc(Nc2ccc(OC(F)F)c(F)c2)n1` [Cpd 101, N-[4-(difluoromethoxy)-3-fluorophenyl]-2-(5,6-difluoro-2-methyl-1H-benzimidazol-1-yl)pyrimidine-4,6-diamine] showed a pEC50 of 7.00 to 8.00.
Compound `Cc1nc2cc(F)c(F)cc2n1-c1nc(N)cc(Nc2ccc(OC(F)F)cc2)n1` [Cpd 102, N-[4-(difluoromethoxy)phenyl]-2-(5,6-difluoro-2-methyl-1H-benzimidazol-1-yl)pyrimidine-4,6-diamine] showed a pEC50 of 7.00 to 8.00.
As for `Nc1cc(Nc2ccc(OC(F)F)cc2)nc(-n2c(C3CC3)nc3ncc(F)cc32)n1` [Cpd 103, 2-(2-cyclopropyl-6-fluoro-1H-imidazo[4,5-b]pyridin-1-yl)-N-[4-(difluoromethoxy)phenyl]pyrimidine-4,6-diamine], the pEC50 was 7.00 to 8.00.
Regarding `Cc1nc2ncc(Cl)cc2n1-c1nc(N)cc(Nc2ccc(C(F)(F)F)cc2)n1` [Cpd 104, 2-(6-chloro-2-methyl-1H-imidazo[4,5-b]pyridin-1-yl)-N-[4-(trifluoromethyl)phenyl]pyrimidine-4,6-diamine], the pEC50 is 7.00 to 8.00.
Consider `CCc1nc2ncc(Cl)cc2n1-c1nc(N)cc(Nc2ccc(C(F)(F)F)cc2)n1` [Cpd 105, 2-(6-chloro-2-ethyl-1H-imidazo[4,5-b]pyridin-1-yl)-N-[4-(trifluoromethyl)phenyl]pyrimidine-4,6-diamine], for which the pEC50 was 7.00 to 8.00.
With `Cc1nc2ccccc2n1-c1nc(N)c(F)c(Nc2ccc(OC(F)F)cc2)n1` [Cpd 106, N-[4-(difluoromethoxy)phenyl]-5-fluoro-2-(2-methyl-1H-benzimidazol-1-yl)pyrimidine-4,6-diamine], the pEC50 is 7.00 to 8.00.
As to `CCc1nc2ccccc2n1-c1nc(N)c(F)c(Nc2ccc(C(F)(F)F)cc2)n1` [Cpd 107, 2-(2-ethyl-1H-benzimidazol-1-yl)-5-fluoro-N-[4-(trifluoromethyl)phenyl]pyrimidine-4,6-diamine], the pEC50 is 7.00 to 8.00.
In the case of `Cc1nc2cc(F)ccc2n1-c1nc(N)c(F)c(Nc2ccc(C(F)(F)F)cc2)n1` [Cpd 108, 5-fluoro-2-(5-fluoro-2-methyl-1H-benzimidazol-1-yl)-N-[4-(trifluoromethyl)phenyl]pyrimidine-4,6-diamine] it was 5.52 to 7.00; in that of `Cc1nc2ccc(F)cc2n1-c1nc(N)c(F)c(Nc2ccc(OC(F)F)cc2)n1` [Cpd 110, N-[4-(difluoromethoxy)phenyl]-5-fluoro-2-(6-fluoro-2-methyl-1H-benzimidazol-1-yl)pyrimidine-4,6-diamine], 7.00 to 8.00.
`Cc1nc2ccc(F)cc2n1-c1nc(N)c(F)c(Nc2ccc(OC(F)F)c(F)c2)n1` [Cpd 111, N-[4-(difluoromethoxy)-3-fluorophenyl]-5-fluoro-2-(6-fluoro-2-methyl-1H-benzimidazol-1-yl)pyrimidine-4,6-diamine] had a pEC50 of 7.00 to 8.00.
In the case of `Cc1nc2cc(F)ccc2n1-c1nc(N)c(F)c(Nc2ccc(OC(F)F)c(F)c2)n1` [Cpd 112, N-[4-(difluoromethoxy)-3-fluorophenyl]-5-fluoro-2-(5-fluoro-2-methyl-1H-benzimidazol-1-yl)pyrimidine-4,6-diamine] it was 7.00 to 8.00; in that of `Cc1nc2cc(F)ccc2n1-c1nc(N)c(F)c(Nc2ccc(OC(F)F)cc2)n1` [Cpd 113, N-[4-(difluoromethoxy)phenyl]-5-fluoro-2-(5-fluoro-2-methyl-1H-benzimidazol-1-yl)pyrimidine-4,6-diamine], 7.00 to 8.00.
The compound `Cc1nc2ncc(Cl)cc2n1-c1nc(N)c(F)c(Nc2ccc(C(F)(F)F)cc2)n1` [Cpd 114, 2-(6-chloro-2-methyl-1H-imidazo[4,5-b]pyridin-1-yl)-5-fluoro-N-[4-(trifluoromethyl)phenyl]pyrimidine-4,6-diamine] gave a pEC50 of 7.00 to 8.00.
In the case of `Cc1nc2ncc(Cl)cc2n1-c1nc(N)c(F)c(Nc2ccc(OC(F)F)cc2)n1` [Cpd 115, 2-(6-chloro-2-methyl-1H-imidazo[4,5-b]pyridin-1-yl)-N-[4-(difluoromethoxy)phenyl]-5-fluoropyrimidine-4,6-diamine] it was 7.00 to 8.00.
`Cc1nc2ncc(Cl)cc2n1-c1nc(N)c(F)c(Nc2ccc(OC(F)F)c(F)c2)n1` [Cpd 116, 2-(6-chloro-2-methyl-1H-imidazo[4,5-b]pyridin-1-yl)-N-[4-(difluoromethoxy)-3-fluorophenyl]-5-fluoropyrimidine-4,6-diamine] had a pEC50 of 7.00 to 8.00.
Compound `Nc1nc(-n2c(C3CC3)nc3ncc(F)cc32)nc(Nc2ccc(C(F)(F)F)cc2)c1F` [Cpd 117, 2-(2-cyclopropyl-6-fluoro-1H-imidazo[4,5-b]pyridin-1-yl)-5-fluoro-N-[4-(trifluoromethyl)phenyl]pyrimidine-4,6-diamine] gave a pEC50 of 7.00 to 8.00.
As for `FC(F)(F)c1ccc(Nc2ccnc(-c3cnc4ccccn34)n2)cc1` [Cpd 118, 2-(imidazo[1,2-a]pyridin-3-yl)-N-[4-(trifluoromethyl)phenyl]pyrimidin-4-amine], the figure is 5.52 to 7.00; as for `Cc1nc2ccccc2n1-c1nc(N)c(F)c(Nc2ccc(OC(F)F)c(F)c2)n1` [Cpd 119, N-[4-(difluoromethoxy)-3-fluorophenyl]-5-fluoro-2-(2-methyl-1H-benzimidazol-1-yl)pyrimidine-4,6-diamine], 7.00 to 8.00.
Compound `Nc1nc(-n2c(C3CC3)nc3ccccc32)nc(Nc2ccc(C(F)(F)F)cc2)c1F` [Cpd 120, 2-(2-cyclopropyl-1H-benzimidazol-1-yl)-5-fluoro-N-[4-(trifluoromethyl)phenyl]pyrimidine-4,6-diamine] had a pEC50 of 7.00 to 8.00.
Take `Nc1nc(-n2c(C3CC3)nc3ccccc32)nc(Nc2ccc(OC(F)F)cc2)c1F` [Cpd 121, 2-(2-cyclopropyl-1H-benzimidazol-1-yl)-N-[4-(difluoromethoxy)phenyl]-5-fluoropyrimidine-4,6-diamine]: the pEC50 is 8.00 to 9.00.
`Nc1nc(-n2c(C3CC3)nc3ccccc32)nc(Nc2ccc(OC(F)F)c(F)c2)c1F` [Cpd 122, 2-(2-cyclopropyl-1H-benzimidazol-1-yl)-N-[4-(difluoromethoxy)-3-fluorophenyl]-5-fluoropyrimidine-4,6-diamine] showed a pEC50 of 7.00 to 8.00.
`CCc1nc2ccccc2n1-c1nc(N)c(F)c(Nc2ccc(OC(F)F)cc2)n1` [Cpd 123, N-[4-(difluoromethoxy)phenyl]-2-(2-ethyl-1H-benzimidazol-1-yl)-5-fluoropyrimidine-4,6-diamine] had a pEC50 of 8.00 to 9.00.
Regarding `CCc1nc2ccccc2n1-c1nc(N)c(F)c(Nc2ccc(OC(F)F)c(F)c2)n1` [Cpd 124, N-[4-(difluoromethoxy)-3-fluorophenyl]-2-(2-ethyl-1H-benzimidazol-1-yl)-5-fluoropyrimidine-4,6-diamine], the pEC50 is 7.00 to 8.00.
`Cc1nc2cc(F)c(F)cc2n1-c1nc(N)c(F)c(Nc2ccc(C(F)(F)F)cc2)n1` [Cpd 125, 2-(5,6-difluoro-2-methyl-1H-benzimidazol-1-yl)-5-fluoro-N-[4-(trifluoromethyl)phenyl]pyrimidine-4,6-diamine] had a pEC50 of 5.52 to 7.00.
The compound `Cc1nc2cc(F)c(F)cc2n1-c1nc(N)c(F)c(Nc2ccc(OC(F)F)c(F)c2)n1` [Cpd 126, N-[4-(difluoromethoxy)-3-fluorophenyl]-2-(5,6-difluoro-2-methyl-1H-benzimidazol-1-yl)-5-fluoropyrimidine-4,6-diamine] had a pEC50 of 7.00 to 8.00.
In the case of `Cc1nc2c(F)cc(F)cc2n1-c1nc(N)c(F)c(Nc2ccc(C(F)(F)F)cc2)n1` [Cpd 127, 2-(4,6-difluoro-2-methyl-1H-benzimidazol-1-yl)-5-fluoro-N-[4-(trifluoromethyl)phenyl]pyrimidine-4,6-diamine] it was 7.00 to 8.00.
Consider `Cc1nc2c(F)cc(F)cc2n1-c1nc(N)c(F)c(Nc2ccc(OC(F)F)c(F)c2)n1` [Cpd 128, N-[4-(difluoromethoxy)-3-fluorophenyl]-2-(4,6-difluoro-2-methyl-1H-benzimidazol-1-yl)-5-fluoropyrimidine-4,6-diamine], for which the pEC50 is 7.00 to 8.00.
Take `CCc1nc2c(F)cc(F)cc2n1-c1nc(N)c(F)c(Nc2ccc(C(F)(F)F)cc2)n1` [Cpd 129, 2-(2-ethyl-4,6-difluoro-1H-benzimidazol-1-yl)-5-fluoro-N-[4-(trifluoromethyl)phenyl]pyrimidine-4,6-diamine]: the pEC50 is 7.00 to 8.00.
